# According to ChEMBL document CHEMBL1201862, “PubChem BioAssay data set” (2004):
# Calls of active or inactive are those of the source.
# How the values were obtained:
# HEK293 = experiment: cells; settings: Homo sapiens;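 note: cells exposed to compound for 14 hours overnight before viability readout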
# [1] = target: T1, Nucleotide-binding oligomerization domain-containing protein 1 (Homo sapiens, UniProt Q9Y239); experiment: NOD1 signaling inhibitors, SAR follow-up, revised (AID 2333); format: functional
# T1 sequence (Q9Y239 whole entry): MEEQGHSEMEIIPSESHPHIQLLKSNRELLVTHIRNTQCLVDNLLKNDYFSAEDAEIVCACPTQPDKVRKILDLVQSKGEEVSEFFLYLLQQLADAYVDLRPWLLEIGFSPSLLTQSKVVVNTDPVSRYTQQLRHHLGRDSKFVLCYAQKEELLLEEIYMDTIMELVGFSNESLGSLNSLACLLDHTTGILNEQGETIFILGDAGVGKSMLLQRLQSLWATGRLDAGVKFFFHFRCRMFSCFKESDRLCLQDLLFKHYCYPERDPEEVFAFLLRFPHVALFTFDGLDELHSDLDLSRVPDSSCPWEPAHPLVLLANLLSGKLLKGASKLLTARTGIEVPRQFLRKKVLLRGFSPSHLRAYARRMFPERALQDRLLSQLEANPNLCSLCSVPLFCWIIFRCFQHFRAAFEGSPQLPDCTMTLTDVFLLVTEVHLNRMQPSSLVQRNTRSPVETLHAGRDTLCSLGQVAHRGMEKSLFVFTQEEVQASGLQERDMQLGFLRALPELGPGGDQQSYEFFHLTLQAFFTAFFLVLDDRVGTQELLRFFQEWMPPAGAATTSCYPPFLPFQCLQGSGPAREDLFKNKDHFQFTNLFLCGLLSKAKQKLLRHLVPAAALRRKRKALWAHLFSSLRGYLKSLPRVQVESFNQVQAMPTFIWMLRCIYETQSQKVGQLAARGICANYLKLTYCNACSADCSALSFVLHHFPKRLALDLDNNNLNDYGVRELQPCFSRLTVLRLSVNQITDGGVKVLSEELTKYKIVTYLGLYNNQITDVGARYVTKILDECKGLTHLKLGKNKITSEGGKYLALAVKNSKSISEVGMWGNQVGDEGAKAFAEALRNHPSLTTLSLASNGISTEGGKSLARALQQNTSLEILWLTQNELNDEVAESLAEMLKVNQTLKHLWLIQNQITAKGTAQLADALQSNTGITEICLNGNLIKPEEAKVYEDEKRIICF
# Tumor necrosis factor = Tumor necrosis factor (Homo sapiens, UniProt P01375); experiment: TNFa-triggered NF-kB activation inhibitors, SAR follow-up, cell-based, revised (AID 2337); format: functional
# Sequence of Tumor necrosis factor (P01375 whole entry, the tested form may be a part): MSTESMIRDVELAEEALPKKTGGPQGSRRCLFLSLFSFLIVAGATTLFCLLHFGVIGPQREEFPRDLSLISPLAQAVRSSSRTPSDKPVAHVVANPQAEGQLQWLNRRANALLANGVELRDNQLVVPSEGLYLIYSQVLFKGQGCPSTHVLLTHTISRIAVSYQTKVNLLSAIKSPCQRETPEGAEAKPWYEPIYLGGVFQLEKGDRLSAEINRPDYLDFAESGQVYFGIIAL
# [2] = target: Nucleotide-binding oligomerization domain-containing protein 2 (Homo sapiens, UniProt Q9HC29); experiment: PubChem AID 2334; format: functional
# Sequence of Nucleotide-binding oligomerization domain-containing protein 2 (Q9HC29 whole entry, the tested form may be a part): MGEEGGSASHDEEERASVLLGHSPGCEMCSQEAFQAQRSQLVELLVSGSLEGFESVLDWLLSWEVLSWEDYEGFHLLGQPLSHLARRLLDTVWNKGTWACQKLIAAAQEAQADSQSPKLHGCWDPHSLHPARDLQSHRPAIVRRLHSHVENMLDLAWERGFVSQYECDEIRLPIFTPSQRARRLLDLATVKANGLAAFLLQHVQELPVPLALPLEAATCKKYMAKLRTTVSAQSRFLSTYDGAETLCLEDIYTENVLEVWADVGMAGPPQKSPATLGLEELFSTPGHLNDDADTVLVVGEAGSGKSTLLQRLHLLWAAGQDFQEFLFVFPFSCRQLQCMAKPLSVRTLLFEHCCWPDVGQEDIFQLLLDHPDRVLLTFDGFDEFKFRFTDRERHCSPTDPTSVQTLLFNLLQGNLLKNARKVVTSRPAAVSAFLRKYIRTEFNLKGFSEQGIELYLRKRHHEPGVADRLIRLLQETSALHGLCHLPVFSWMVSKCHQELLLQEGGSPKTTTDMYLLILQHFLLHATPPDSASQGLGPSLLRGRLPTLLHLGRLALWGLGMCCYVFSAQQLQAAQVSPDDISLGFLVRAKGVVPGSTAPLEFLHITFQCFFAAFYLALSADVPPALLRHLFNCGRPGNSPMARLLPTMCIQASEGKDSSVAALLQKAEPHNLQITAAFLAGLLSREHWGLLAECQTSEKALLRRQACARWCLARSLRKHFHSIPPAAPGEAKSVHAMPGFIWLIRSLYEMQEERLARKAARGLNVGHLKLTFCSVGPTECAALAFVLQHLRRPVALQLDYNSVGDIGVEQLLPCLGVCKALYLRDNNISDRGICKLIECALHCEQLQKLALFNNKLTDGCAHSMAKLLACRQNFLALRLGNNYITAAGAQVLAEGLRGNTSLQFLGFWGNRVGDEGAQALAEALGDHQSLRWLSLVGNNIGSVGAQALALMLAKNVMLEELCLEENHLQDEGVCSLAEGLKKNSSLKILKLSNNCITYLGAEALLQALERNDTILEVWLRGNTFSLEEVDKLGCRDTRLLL
# Leucine aminopeptidase = target: T2, Leucine aminopeptidase (Plasmodium falciparum 3D7, UniProt Q8IL11); experiment: P. falciparum M17LAP inhibitors, primary screen, biochemical, fluorogenic H-Leu-NHMec substrate, 1536-well (AID 1619); format: functional
# T2 sequence (Q8IL11 whole entry): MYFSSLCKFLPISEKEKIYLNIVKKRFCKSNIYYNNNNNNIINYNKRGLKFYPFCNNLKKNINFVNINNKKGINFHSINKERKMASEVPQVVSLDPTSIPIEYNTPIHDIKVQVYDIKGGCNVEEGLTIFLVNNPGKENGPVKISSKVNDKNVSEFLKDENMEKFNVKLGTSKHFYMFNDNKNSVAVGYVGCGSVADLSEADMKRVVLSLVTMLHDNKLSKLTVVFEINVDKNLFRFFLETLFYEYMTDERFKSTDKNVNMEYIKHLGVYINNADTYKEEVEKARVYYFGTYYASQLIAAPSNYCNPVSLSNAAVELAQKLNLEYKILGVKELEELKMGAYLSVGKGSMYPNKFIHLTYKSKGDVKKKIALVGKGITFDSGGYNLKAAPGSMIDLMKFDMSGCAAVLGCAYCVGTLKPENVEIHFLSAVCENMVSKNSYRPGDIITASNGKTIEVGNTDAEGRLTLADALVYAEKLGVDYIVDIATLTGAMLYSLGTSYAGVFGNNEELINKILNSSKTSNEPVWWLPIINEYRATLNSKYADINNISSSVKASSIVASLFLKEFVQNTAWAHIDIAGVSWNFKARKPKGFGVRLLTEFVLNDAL
# [3] = target: Peroxisome proliferator-activated receptor gamma/Nuclear receptor coactivator 2 (Homo sapiens, UniProt P37231); format: functional;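 note: agonist potency for raising coactivator recruitment to the receptor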
# [4] = target: Peroxisome proliferator-activated receptor gamma/Nuclear receptor coactivator 3 (Homo sapiens, UniProt P37231); format: functional;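 note: agonist potency for raising coactivator recruitment to the receptor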
# [5] = target: Peroxisome proliferator-activated receptor gamma/Nuclear receptor coactivator 1 (Homo sapiens, UniProt P37231); format: functional;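 note: agonist potency as compounds enhance coactivator SRC-1 recruitment to PPARgamma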
# Sequence of Peroxisome proliferator-activated receptor gamma/Nuclear receptor coactivator 1 (P37231 whole entry): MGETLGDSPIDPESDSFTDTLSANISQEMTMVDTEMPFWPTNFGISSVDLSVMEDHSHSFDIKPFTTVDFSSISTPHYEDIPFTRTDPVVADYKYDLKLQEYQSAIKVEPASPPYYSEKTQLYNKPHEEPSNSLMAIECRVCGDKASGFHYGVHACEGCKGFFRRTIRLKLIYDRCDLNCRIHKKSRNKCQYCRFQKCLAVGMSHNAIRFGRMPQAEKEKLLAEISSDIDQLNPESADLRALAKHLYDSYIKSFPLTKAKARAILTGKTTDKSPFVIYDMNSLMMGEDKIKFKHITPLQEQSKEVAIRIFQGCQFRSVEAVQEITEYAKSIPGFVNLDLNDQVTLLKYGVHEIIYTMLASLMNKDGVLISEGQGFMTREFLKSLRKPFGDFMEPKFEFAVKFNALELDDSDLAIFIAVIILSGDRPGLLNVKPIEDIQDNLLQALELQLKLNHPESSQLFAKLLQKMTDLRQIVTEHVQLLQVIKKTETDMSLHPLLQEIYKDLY
# Sequence of Peroxisome proliferator-activated receptor gamma/Nuclear receptor coactivator 1 (Q15788 whole entry, further chain): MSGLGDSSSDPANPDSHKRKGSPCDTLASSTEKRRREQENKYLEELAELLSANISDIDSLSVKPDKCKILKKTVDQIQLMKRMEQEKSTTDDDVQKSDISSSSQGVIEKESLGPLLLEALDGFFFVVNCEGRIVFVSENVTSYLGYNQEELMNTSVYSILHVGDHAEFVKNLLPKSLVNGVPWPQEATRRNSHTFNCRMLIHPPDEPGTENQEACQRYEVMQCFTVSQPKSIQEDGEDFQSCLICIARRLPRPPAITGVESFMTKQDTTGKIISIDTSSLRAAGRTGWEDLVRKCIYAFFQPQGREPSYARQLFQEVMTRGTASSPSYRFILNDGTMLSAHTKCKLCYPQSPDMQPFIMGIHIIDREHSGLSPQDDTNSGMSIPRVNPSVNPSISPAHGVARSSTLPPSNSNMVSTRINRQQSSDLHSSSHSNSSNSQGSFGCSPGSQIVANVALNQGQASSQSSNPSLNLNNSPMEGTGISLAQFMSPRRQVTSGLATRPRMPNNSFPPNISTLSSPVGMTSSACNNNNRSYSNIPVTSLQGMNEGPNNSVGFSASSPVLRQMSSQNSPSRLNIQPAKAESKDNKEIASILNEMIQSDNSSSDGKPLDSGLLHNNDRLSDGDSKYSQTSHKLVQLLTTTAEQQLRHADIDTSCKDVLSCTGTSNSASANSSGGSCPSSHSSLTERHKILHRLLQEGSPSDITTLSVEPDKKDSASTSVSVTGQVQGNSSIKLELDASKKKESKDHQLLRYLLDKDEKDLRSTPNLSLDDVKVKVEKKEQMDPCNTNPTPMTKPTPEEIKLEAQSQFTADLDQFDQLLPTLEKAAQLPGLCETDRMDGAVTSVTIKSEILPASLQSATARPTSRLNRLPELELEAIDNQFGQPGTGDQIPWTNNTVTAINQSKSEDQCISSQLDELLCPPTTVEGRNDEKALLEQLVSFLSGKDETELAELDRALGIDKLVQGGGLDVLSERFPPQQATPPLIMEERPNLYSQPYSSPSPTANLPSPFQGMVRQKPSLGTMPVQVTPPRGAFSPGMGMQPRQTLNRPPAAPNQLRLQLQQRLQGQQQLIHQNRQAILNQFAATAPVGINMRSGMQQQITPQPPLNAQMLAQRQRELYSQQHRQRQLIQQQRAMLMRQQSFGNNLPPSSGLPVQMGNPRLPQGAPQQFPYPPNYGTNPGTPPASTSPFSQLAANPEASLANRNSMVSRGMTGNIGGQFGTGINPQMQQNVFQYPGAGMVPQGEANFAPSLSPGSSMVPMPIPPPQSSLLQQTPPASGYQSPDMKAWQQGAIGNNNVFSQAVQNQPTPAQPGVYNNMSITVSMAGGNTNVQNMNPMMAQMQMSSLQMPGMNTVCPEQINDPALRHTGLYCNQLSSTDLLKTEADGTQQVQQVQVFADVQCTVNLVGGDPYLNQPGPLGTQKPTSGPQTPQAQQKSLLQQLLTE
# [6] = target: Photoreceptor-specific nuclear receptor (Homo sapiens, UniProt Q9Y5X4); format: functional;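 note: potency for compounds that break the NR2E3 corepressor complex and count as activators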
# Sequence of Photoreceptor-specific nuclear receptor (Q9Y5X4 whole entry): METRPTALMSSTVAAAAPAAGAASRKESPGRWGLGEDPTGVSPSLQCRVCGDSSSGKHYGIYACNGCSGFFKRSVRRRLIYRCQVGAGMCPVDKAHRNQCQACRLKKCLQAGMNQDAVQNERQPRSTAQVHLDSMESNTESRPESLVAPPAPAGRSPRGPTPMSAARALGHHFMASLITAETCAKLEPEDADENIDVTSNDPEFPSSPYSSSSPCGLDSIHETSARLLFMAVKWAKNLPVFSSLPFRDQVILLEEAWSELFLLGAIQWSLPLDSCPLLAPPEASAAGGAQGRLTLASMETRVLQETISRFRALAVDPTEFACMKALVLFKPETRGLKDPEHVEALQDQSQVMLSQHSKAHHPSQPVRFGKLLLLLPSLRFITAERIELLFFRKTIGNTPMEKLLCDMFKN
# [7] = target: Peroxisome proliferator-activated receptor gamma/Nuclear receptor corepressor 2 (Homo sapiens, UniProt P37231+Q9Y618); format: functional
# [8] = inhibitors of SNCA 5'UTR-driven reporter translation, confirmation, H4 neuroglioma cells, luminescence (AID 1988); format: functional, cell-based
# HT-1080 = experiment: cytotoxicity in HT1080 fibrosarcoma cells, cell-based, fluorescence readout (AID 620); format: functional; settings: Homo sapiens
# [9] = target: Glyceraldehyde-3-phosphate dehydrogenase (Homo sapiens, UniProt P04406)
# Sequence of Glyceraldehyde-3-phosphate dehydrogenase (P04406 whole entry): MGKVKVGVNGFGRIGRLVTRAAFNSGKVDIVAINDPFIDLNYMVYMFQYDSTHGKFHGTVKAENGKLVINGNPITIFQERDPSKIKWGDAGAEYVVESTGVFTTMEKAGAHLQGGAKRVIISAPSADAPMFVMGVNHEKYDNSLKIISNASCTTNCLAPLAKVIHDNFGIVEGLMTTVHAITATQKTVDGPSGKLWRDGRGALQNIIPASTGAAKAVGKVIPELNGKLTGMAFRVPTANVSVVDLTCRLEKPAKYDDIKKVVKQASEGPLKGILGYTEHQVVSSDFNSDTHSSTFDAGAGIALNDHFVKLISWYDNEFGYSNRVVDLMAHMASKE
# [10] = Luminescence Cell-Based Dose Response HTS to Identify Inhibitors of 5'UTR Stem-Loop Driven Prion Protein mRNA Translation in H4 Neuroglioblastoma Cells. [Related pubchem assays: 1827 (Project Summary), 1813 (Primary HTS)]; format: functional
# Cytochrome P450 2C19 = Cytochrome P450 2C19 (Homo sapiens, UniProt P33261); experiment: Cytochrome panel assay with activity outcomes. Panel member name: p450-cyp2c19 Compounds with AC50 equal or less than 10 uM are considered active; format: functional; settings: read-out: AC50
# [11] = target: Luciferin 4-monooxygenase (Photinus pyralis, UniProt P08659); experiment: Counter Screen for Luciferase-based Assay Positives. [Related pubchem assays: 620, 618, 411 ]
# Sequence of Luciferin 4-monooxygenase (P08659 whole entry): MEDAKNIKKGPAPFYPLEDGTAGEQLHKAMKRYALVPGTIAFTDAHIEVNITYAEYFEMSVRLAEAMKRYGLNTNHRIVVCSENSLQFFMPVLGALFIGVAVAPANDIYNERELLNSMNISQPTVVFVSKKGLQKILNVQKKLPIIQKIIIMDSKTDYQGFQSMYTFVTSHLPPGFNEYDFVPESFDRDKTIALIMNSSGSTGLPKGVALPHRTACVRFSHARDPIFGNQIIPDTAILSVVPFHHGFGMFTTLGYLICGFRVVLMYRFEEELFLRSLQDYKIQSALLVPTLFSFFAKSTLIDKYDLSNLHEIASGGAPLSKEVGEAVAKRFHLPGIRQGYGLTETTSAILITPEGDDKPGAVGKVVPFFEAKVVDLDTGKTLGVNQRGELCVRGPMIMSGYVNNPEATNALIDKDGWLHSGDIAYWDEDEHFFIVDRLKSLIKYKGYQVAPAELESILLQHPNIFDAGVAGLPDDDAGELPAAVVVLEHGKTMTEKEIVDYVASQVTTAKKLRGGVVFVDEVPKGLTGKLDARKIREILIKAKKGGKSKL
# [12] = inhibitors of firefly luciferase expression or activity, dose response, H4 neuroglioma cells, luminescence (AID 1990); format: functional, cell-based
# [13] = cytotoxicity toward NIH3T3 fibroblasts, dose response, counter-screen, cell-based, ATP luminescence, mouse fibroblasts (AID 2010); format: functional;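 note: cells exposed to compound for about 90 hours before reading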
# [14] = Shn3 3'UTR reporter inhibitors, dose response, cell-based, Clone20 osteoblasts, firefly luciferase, cherry-picked (AID 624132); format: functional;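 note: firefly luciferase luminescence from reporter carrying the Shn3 3'UTR in osteoblasts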
# [15] = A cytotoxicity screen of small molecule inhibitors of the PhoP region in Salmonella typhi identified in the primary screen. [Related pubchem assays: 1850, 1864, 1985 ]; format: functional
# [16] = control 3'UTR Renilla luciferase suppression, dose response, counter-screen for Shn3 inhibitor project, cell-based, Clone20-Shn3RL, cherry-picked (AID 624133); format: functional
# cells [17] = format: functional
# [18] = HepG2 cell cytotoxicity, dose response, cytotoxicity control for Shn3 inhibitor project, CellTiter-Glo, cherry-picked (AID 624134); format: functional, cell-based
# [19] = inhibitors of intracellular T. cruzi replication, confirmation, NIH3T3 host cells, beta-gal luminescence (AID 2044); format: functional, cell-based;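 note: intracellular parasites grown in NIH/3T3 mouse fibroblasts as host cells; luminescent beta-galactosidase reporter signal from transgenic T. cruzi replicating inside host cells; inhibitors lower the luminescence signal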
# [20] = HepG2 cell cytotoxicity, dose response, cytotoxicity control for non-replicating M. tuberculosis project (AID 489018); format: functional; settings: Mycobacterium tuberculosis
# [21] = cytotoxicity in HEK-293T NF-kB-Luc cells, dose response, cytotoxicity control for B/T-cell NF-kB inhibitor project, cell-based, uHTS hits (AID 489019); format: functional;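 note: IC50 reflects cytotoxicity as loss of cell viability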
# Jurkat = experiment: antigen receptor-induced NF-kB inhibitors, dose response, Jurkat, luciferase reporter, luminescence, B- and T-cell (AID 489004); format: functional, cell-based; settings: Homo sapiens;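 note: NF-kB luciferase reporter Jurkat cells stimulated with PMA plus ionomycin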
# [22] = inhibitors of SNCA 5'UTR-driven translation, confirmation, luminescence, H4 neuroglioblastoma cells, dose confirmation (AID 2454); format: functional, cell-based;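 note: H4 neuroglioblastoma cells carrying an alpha-synuclein 5'UTR luciferase reporter; potency for inhibition of the luciferase signal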
# cells [23] = format: functional, cell-based
# [24] = luciferase reporter signal reduction – luminescence, H4-C neuroglioblastoma cells, dose response (AID 2458); format: functional, cell-based;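 note: H4 neuroglioblastoma cells stably carrying a luciferase reporter gene fusion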
# SN12K1 = experiment: cells; format: functional; settings: Homo sapiens
# P388 = experiment: cells; format: functional; settings: Mus musculus
# P388/ADR = experiment: cells; format: functional; settings: Mus musculus
# [25] = A Cell Based Secondary Assay To Explore Cytotoxicity of Compounds that Sensitize Mycobacterium Tuberculosis to Beta-Lactam Antibiotics.; format: functional
# cells [26] = format: functional, cell-based; remark: listed apart in the source
# cells [27] = format: functional, cell-based; remark: listed apart in the source
# Cytochrome P450 2C9 = Cytochrome P450 2C9 (Homo sapiens, UniProt P11712)
# [28] = target: T3, Microphthalmia-associated transcription factor (Homo sapiens, UniProt O75030); experiment: TRPM1 promoter luciferase signal decrease, dose response, MITF inhibitor project, cell-based, SK-MEL-5, cherry-picked, set 3 (AID 493073); format: functional
# T3 sequence (O75030 whole entry): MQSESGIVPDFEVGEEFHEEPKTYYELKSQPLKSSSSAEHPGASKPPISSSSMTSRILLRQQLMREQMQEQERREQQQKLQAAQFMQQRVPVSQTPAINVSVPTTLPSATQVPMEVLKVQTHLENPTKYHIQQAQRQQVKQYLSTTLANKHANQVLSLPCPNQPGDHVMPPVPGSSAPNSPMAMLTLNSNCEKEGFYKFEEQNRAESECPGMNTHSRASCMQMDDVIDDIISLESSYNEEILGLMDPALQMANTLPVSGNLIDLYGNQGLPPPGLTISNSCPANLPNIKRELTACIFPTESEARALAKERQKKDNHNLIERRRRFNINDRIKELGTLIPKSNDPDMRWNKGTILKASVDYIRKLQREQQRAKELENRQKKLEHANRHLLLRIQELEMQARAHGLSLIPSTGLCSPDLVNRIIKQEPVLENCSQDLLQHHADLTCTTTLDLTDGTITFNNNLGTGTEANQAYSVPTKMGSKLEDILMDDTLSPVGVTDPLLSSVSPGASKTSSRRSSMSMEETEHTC
# Cytochrome P450 3A4 = Cytochrome P450 3A4 (Homo sapiens, UniProt P08684);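 note: CYP3A4 tested as one member of a cytochrome P450 panel screen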
# Sequence of Cytochrome P450 3A4 (P08684 whole entry): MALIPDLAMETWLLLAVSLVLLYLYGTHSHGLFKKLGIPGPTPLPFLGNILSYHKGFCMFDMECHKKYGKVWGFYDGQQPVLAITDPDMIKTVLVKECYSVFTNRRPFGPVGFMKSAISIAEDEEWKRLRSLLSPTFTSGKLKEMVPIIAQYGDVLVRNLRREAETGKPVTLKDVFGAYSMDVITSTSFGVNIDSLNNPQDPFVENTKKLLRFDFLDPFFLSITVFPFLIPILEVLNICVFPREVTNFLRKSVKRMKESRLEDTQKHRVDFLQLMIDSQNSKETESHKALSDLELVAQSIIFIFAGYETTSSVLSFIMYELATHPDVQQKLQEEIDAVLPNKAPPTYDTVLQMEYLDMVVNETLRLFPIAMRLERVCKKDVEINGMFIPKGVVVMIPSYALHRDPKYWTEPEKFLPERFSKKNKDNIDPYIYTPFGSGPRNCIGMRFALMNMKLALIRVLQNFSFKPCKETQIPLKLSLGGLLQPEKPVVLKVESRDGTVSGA
structure (smiles),measurement,setting,value
CC1(C)Cc2c(sc(NC(=O)C(=O)N3CCCCC3)c2C(=O)O)CO1,IC50,HEK293,> 20 µM (inactive)
same,IC50,[1],> 20 µM (inactive)
same,IC50,Tumor necrosis factor,> 20 µM (inactive)
same,IC50,[2],> 20 µM (inactive)
CC(C)[C@H](Nc1nc(-c2ccccc2)nc2c1oc1ccccc12)C(=O)O,IC50,Leucine aminopeptidase,25.2 µM (active)
CCc1cc2cc(C(=O)Nc3ccc(C)cc3)sc2s1,EC50,[3],28.1 µM (not active)
same,EC50,[4],50.8 µM (not active)
same,EC50,[5],50.4 µM (not active)
same,IC50,[6],> 39.8 µM (not active)
same,IC50,[7],2.25 µM (active)
CC1(C)Cc2c(sc(NC(=O)c3ccccc3)c2C(=O)O)CO1,IC50,HEK293,> 20 µM (inactive)
same,IC50,[1],> 20 µM (inactive)
same,IC50,Tumor necrosis factor,> 20 µM (inactive)
same,IC50,[2],> 20 µM (inactive)
CCOc1ccc(-c2cc(CCCC(=O)Nc3cc(OC)ccc3OC)no2)cc1,EC50,[8],11.9 µM (active)
same,EC50,HT-1080,> 50 µM (not active)
same,IC50,[9],> 100 µM (not active)
same,EC50,[10],26.9 µM (active)
same,AC50,Cytochrome P450 2C19,3.16 µM (inconclusive)
same,EC50,[11],18.8 µM (active)
same,EC50,[12],13 µM (active)
CC(C)(C)c1ccc(NC(=O)COc2ccc(-n3ccnc3)cc2)cc1,EC50,[13],> 60 µM (not active)
same,AC50,[14],5.27 µM (active)
same,EC50,[15],> 50 µM (active)
same,AC50,[16],10 µM (active)
same,IC50,cells [17],26.1 µM (active)
same,AC50,[18],43.1 µM (active)
same,EC50,[19],1.27 µM (active)
same,CC50,[20],> 20 µM (active)
COc1ccc(/C(C)=C2/SC(=S)N(CCC(=O)O)C2=O)cc1,IC50,Leucine aminopeptidase,27.4 µM (active)
C=CCNC(=O)c1ccc(-c2nc(-c3ccc(Cl)cc3Cl)cs2)cc1,EC50,[3],10.2 µM (not active)
same,EC50,[4],10.9 µM (not active)
same,EC50,[5],17.1 µM (not active)
COc1ccc(-c2nc3cc(NC(=O)Cc4ccc(OC)c(OC)c4)ccc3o2)cc1,EC50,[15],> 50 µM (active)
COC(=O)Cc1ccc(NC(=O)c2ccc(C(C)(C)C)cc2)cc1,EC50,[8],< 0.1 µM (active)
same,IC50,[21],78.9 µM (inactive)
same,IC50,Jurkat,0.19 µM (active)
same,EC50,[22],0.161 µM (active)
same,EC50,HT-1080,> 50 µM (not active)
same,EC50,[10],< 0.1 µM (active)
same,EC50,cells [23],0.263 µM (active)
same,EC50,[11],1.8 µM (active)
same,EC50,[24],0.067 µM (active)
same,EC50,[12],< 0.1 µM (active)
O=C1NC(=S)NC(=O)C1=C(O)Nc1ccccc1,GI50,SN12K1,15 µM (inactive)
same,EC50,[15],> 50 µM (active)
same,GI50,P388,16.7 µM (inactive)
same,GI50,P388/ADR,25.2 µM (inactive)
O=C1C2ON(c3ccc(Br)cc3)C(c3cccnc3)C2C(=O)N1C1CCCCC1 (stereo not given),CC50,[25],37.9 µM (active)
COc1cccc(CNC(=O)CCCn2c(=S)[nH]c3cc4c(cc3c2=O)OCO4)c1,IC50,[6],> 39.8 µM (not active)
same,EC50,cells [26],54.4 µM (active)
same,IC50,[7],4.26 µM (active)
same,EC50,cells [27],> 350 µM (not active)
CC(=O)Nc1nc2ccccc2n1S(=O)(=O)c1ccc(Cl)cc1,IC50,HEK293,> 20 µM (inactive)
same,IC50,[1],4.56 µM (active)
same,IC50,Tumor necrosis factor,> 20 µM (inactive)
same,IC50,[2],> 20 µM (inactive)
CCOC(=O)/C(=N\Nc1ccccc1)c1csc(Nc2ccc(C)cc2)n1,EC50,[13],> 30 µM (not active)
same,CC50,[25],31.3 µM (active)
same,EC50,[19],2.13 µM (active)
O=C(N/N=C/c1ccc([N+](=O)[O-])s1)c1ccccc1Br,EC50,HT-1080,> 50 µM (not active)
same,AC50,Cytochrome P450 2C9,39.8 µM (inconclusive)
same,AC50,[28],3.65 µM (active)
same,EC50,[11],0.24 µM (active)
same,AC50,Cytochrome P450 3A4,22.4 µM (inconclusive)
